Measured values published in patent US20050069522A1, “Combination pharmaceutical agents as inhibitors of HCV replication” (priority 2002, published 2005).

system: HCV replicon (HCV 1b-377-neo replicon cells); experiment: HCV replicon cell line FRET assay; type: cell-based; conditions: Hepatitis C virus; HCV replicon cell line, FRET assay; read-out: Replicon Inhibition Range EC50

SMILES	EC50
CN=C1SC(c2ccc(NC(=O)[C@H](C)NC(=O)OCc3ccccc3)cc2)C(=O)N1Cc1ccccn1 (some centres unmarked) [Compound 84]	0.1 to 1 µM
C[C@H](NC(=O)Cc1ccccc1)C(=O)Nc1ccc(C2S/C(=N\c3ccc(N4CCOCC4)cc3)N(Cc3ccccn3)C2=O)cc1 (some centres unmarked) [Compound 99]	< 0.1 µM
C[C@H](NC(=O)OCc1ccccc1)C(=O)Nc1ccc(C2S/C(=N\c3ccc(C(F)(F)F)cc3)N(Cc3ccco3)C2=O)cc1 (some centres unmarked) [Compound 62]	1 to 5 µM
O=C(Nc1ccc(C2S/C(=N\c3ccc(N4CCOCC4)cc3)N(c3ccccn3)C2=O)cc1)[C@@H]1CCCN1C(=O)OCc1ccccc1 (some centres unmarked) [Compound 94]	< 0.1 µM
C[C@H](C(=O)N1CCC[C@H]1C(=O)Nc1ccc(C2S/C(=N\c3ccc(N4CCOCC4)cc3)N(Cc3ccccn3)C2=O)cc1)c1ccccc1 (some centres unmarked) [Compound 114]	< 0.1 µM
C[C@H](NC(=O)OCc1ccccc1)C(=O)Nc1ccc(C2S/C(=N\Cc3ccccn3)N(C)C2=O)cc1 (some centres unmarked) [Compound 86]	1 to 5 µM
C[C@H](NC(=O)OCc1ccccc1)C(=O)Nc1ccc(C2S/C(=N\c3ccc(N4CCOCC4)cc3)N(Cc3ccccn3)C2=O)cc1 (some centres unmarked) [Compound 72]	< 0.1 µM
O=C(Nc1ccc(C2S/C(=N\c3cccc(F)c3)N(Cc3ccco3)C2=O)cc1)[C@@H]1CCC(=O)N1C(=O)OCc1ccccc1 (some centres unmarked) [Compound 8]	0.1 to 1 µM
O=C(Nc1ccc(C2S/C(=N\c3cccc4ccncc34)N(Cc3ccco3)C2=O)cc1)[C@@H]1CCCN1C(=O)OCc1ccccc1 (some centres unmarked) [Compound 11]	< 0.1 µM
COc1ccc(CCN2C(=O)C(c3ccc(NC(=O)[C@H](C)NC(=O)OCc4ccccc4)cc3)S/C2=N\c2cccc(F)c2)cc1OC (some centres unmarked) [Compound 28]	1 to 5 µM
Cc1cnc(CN2C(=O)C(c3ccc(NC(=O)[C@@H]4CCCN4C(=O)Cc4ccccc4)cc3)S/C2=N\c2ccc(N3CCOCC3)cc2)cn1 (some centres unmarked) [Compound 95]	< 0.1 µM
Cc1cc(F)ccc1/N=C1\SC(c2ccc(NC(=O)[C@H](C)NC(=O)OCc3ccccc3)cc2)C(=O)N1Cc1ccco1 (some centres unmarked) [Compound 58]	1 to 5 µM
O=C(Nc1ccc(C2S/C(=N\c3ccc(N4CCOCC4)cc3)N(Cc3ccccn3)C2=O)cc1)[C@@H]1CCCN1C(=O)Cc1c(Cl)cccc1Cl (some centres unmarked) [Compound 104]	< 0.1 µM
O=C(Nc1ccc(C2S/C(=N\c3ccc(N4CCOCC4)cc3)N(Cc3ccccn3)C2=O)cc1)[C@@H]1CCC(=O)N1C(=O)C(c1ccccc1)c1ccccc1 (some centres unmarked) [Compound 113]	0.1 to 1 µM
C[C@@H](C(=O)Nc1ccc(C2S/C(=N\c3ccc(N4CCOCC4)cc3)N(Cc3ccccn3)C2=O)cc1)N(C)C(=O)OCc1ccccc1 (some centres unmarked) [Compound 74]	0.1 to 1 µM
CCc1cccc(/N=C2\SC(c3ccc(NC(=O)[C@@H]4CCCN4C(=O)OCc4ccccc4)cc3)C(=O)N2Cc2ccco2)c1 (some centres unmarked) [Compound 36]	1 to 5 µM
O=C(Nc1ccc(C2S/C(=N\c3cccc(F)c3)N(Cc3ccccn3)C2=O)cc1)[C@@H]1CCCN1C(=O)OCc1ccccc1 (some centres unmarked) [Compound 3]	< 0.1 µM
C[C@H](NC(=O)OCc1ccccc1)C(=O)Nc1ccc(C2S/C(=N\c3cccc(Cl)c3)N(Cc3ccco3)C2=O)cc1 (some centres unmarked) [Compound 54]	0.1 to 1 µM
O=C(Nc1ccc(C2S/C(=N\c3cccc(F)c3)N(Cc3ccco3)C2=O)cc1)[C@@H]1CCCN1C(=O)OCc1ccccc1 (stereo partly drawn) [Compound 2, 2S-{4-[2-(3-fluorophenylimino)-3-furan-2ylmethyl-4-oxo-thiazolidin-5yl]-phenylcarbamoyl}pyrrolidine-1-carboxylic acid benzyl ester]	> 5 µM
C[C@H](NC(=O)OCc1ccccc1)C(=O)Nc1ccc(C2S/C(=N\c3cccc(F)c3)N(CCOc3ccccc3)C2=O)cc1 (some centres unmarked) [Compound 21]	1 to 5 µM

SMILES	EC50
O=C(Nc1ccc(C2S/C(=N\c3ccc(F)cc3Cl)N(Cc3ccco3)C2=O)cc1)[C@@H]1CCCN1C(=O)OCc1ccccc1 (some centres unmarked) [Compound 59]	1 to 5 µM
O=C(Nc1ccc(C2S/C(=N\c3cccc(F)c3)N(Cc3ccco3)C2=O)cc1)[C@@H]1CCCN1C(=O)Cc1ccc(Cl)cc1 (some centres unmarked) [Compound 128]	0.1 to 1 µM
O=C(Nc1ccc(C2S/C(=N\c3ccc(F)c(C(F)(F)F)c3)N(Cc3ccco3)C2=O)cc1)[C@@H]1CCCN1C(=O)OCc1ccccc1 (some centres unmarked) [Compound 67]	1 to 5 µM
COc1ccc(CCN2C(=O)C(c3ccc(NC(=O)[C@@H]4CCCN4C(=O)OCc4ccccc4)cc3)S/C2=N\c2cccc(F)c2)cc1OC (some centres unmarked) [Compound 30]	1 to 5 µM
CN(C)c1ccc(CC(=O)N2CCC[C@H]2C(=O)Nc2ccc(C3S/C(=N\c4ccc(N5CCOCC5)cc4)N(Cc4ccccn4)C3=O)cc2)cc1 (some centres unmarked) [Compound 103]	0.1 to 1 µM
O=C(Nc1ccc(C2S/C(=N\c3cccc(F)c3)N(Cc3ccccc3)C2=O)cc1)[C@@H]1CCCN1C(=O)OCc1ccccc1 (some centres unmarked) [Compound 16]	0.1 to 1 µM
Cc1cnc(CN2C(=O)C(c3ccc(NC(=O)[C@H](C)NC(=O)OCc4ccccc4)cc3)S/C2=N\c2ccc(N3CCOCC3)cc2)cn1 (some centres unmarked) [Compound 69]	< 0.1 µM
C[C@H](NC(=O)NCc1ccccc1)C(=O)Nc1ccc(C2S/C(=N\c3cccc(F)c3)N(Cc3ccco3)C2=O)cc1 (some centres unmarked) [Compound 133]	0.1 to 1 µM
CN1C(=O)C(c2ccc(NC(=O)[C@@H]3CCCN3C(=O)OCc3ccccc3)cc2)S/C1=N\Cc1ccccn1 (some centres unmarked) [Compound 87]	0.1 to 1 µM
O=C(Nc1ccc(C2SC3=Nc4ccccc4CN3C2=O)cc1)[C@H]1CCCN1C(=O)OCc1ccccc1 (some centres unmarked) [Compound 139]	0.1 to 1 µM
C[C@H](NC(=O)OCc1ccccc1)C(=O)Nc1ccc(C2S/C(=N\c3cccc(F)c3)N(Cc3ccc(F)c(F)c3F)C2=O)cc1 (some centres unmarked) [Compound 29]	1 to 5 µM
C[C@H](NC(=O)OCc1ccccc1)C(=O)Nc1ccc(C2S/C(=N\c3cc(F)cc(F)c3)N(Cc3ccco3)C2=O)cc1 (some centres unmarked) [Compound 43]	0.1 to 1 µM
CC(C)/N=C1\SC(c2ccc(NC(=O)[C@H](C)NC(=O)C(c3ccccc3)c3ccccc3)cc2)C(=O)N1Cc1ccccn1 (some centres unmarked) [Compound 123]	< 0.1 µM
CCc1cccc(/N=C2\SC(c3ccc(NC(=O)[C@H](C)NC(=O)OCc4ccccc4)cc3)C(=O)N2Cc2ccco2)c1 (some centres unmarked) [Compound 37]	1 to 5 µM
O=C(Nc1ccc(C2S/C(=N\c3ccc(N4CCOCC4)cc3)N(Cc3ccco3)C2=O)cc1)[C@@H]1CCCN1C(=O)OCc1ccccc1 (some centres unmarked) [Compound 7]	< 0.1 µM
O=C(Nc1ccc(C2S/C(=N\c3cccc(F)c3)N(CCc3cccs3)C2=O)cc1)[C@@H]1CCCN1C(=O)OCc1ccccc1 (some centres unmarked) [Compound 20]	1 to 5 µM
O=C(Nc1ccc(C2S/C(=N\c3ccc(N4CCOCC4)cc3)N(Cc3ccccn3)C2=O)cc1)[C@@H]1CCCN1C(=O)C1(c2ccccc2)CC1 (some centres unmarked) [Compound 118]	< 0.1 µM
C[C@H](NC(=O)OCc1ccccc1)C(=O)Nc1ccc(C2S/C(=N\c3cccnc3)N(Cc3cccc(F)c3)C2=O)cc1 (some centres unmarked) [Compound 76]	< 0.1 µM
O=C(Nc1ccc(C2S/C(=N\c3ccc(N4CCOCC4)cc3)N(Cc3ccccn3)C2=O)cc1)[C@@H]1C[C@@H](O)CN1C(=O)OCc1ccccc1 (some centres unmarked) [Compound 78]	0.1 to 1 µM
CC(C)(C)O[C@@H]1C[C@@H](C(=O)Nc2ccc(C3S/C(=N\c4ccc(N5CCOCC5)cc4)N(Cc4ccccn4)C3=O)cc2)N(C(=O)OCc2ccccc2)C1 (some centres unmarked) [Compound 79]	1 to 5 µM

SMILES	EC50
COc1cccc(CN2C(=O)C(c3ccc(NC(=O)[C@H](C)NC(=O)OCc4ccccc4)cc3)S/C2=N\c2cccc(F)c2)c1 (some centres unmarked) [Compound 25]	0.1 to 1 µM
O=C(Nc1ccc(C2S/C(=N\c3ccc(N4CCOCC4)cc3)N(Cc3ccccn3)C2=O)cc1)[C@@H]1CCC(=O)N1C(=O)OCc1ccccc1 (some centres unmarked) [Compound 88]	< 0.1 µM
C[C@H](NC(=O)OCc1ccccc1)C(=O)Nc1ccc(C2SC3=Nc4ccccc4CN3C2=O)cc1 (some centres unmarked) [Compound 138]	1 to 5 µM
C[C@H](NC(=O)OCc1ccccc1)C(=O)Nc1ccc(C2S/C(=N\c3cccc(F)c3)N(CCc3cccs3)C2=O)cc1 (some centres unmarked) [Compound 24]	0.1 to 1 µM
CO[C@@H](C(=O)N1CCC[C@H]1C(=O)Nc1ccc(C2S/C(=N\c3ccc(N4CCOCC4)cc3)N(Cc3ccccn3)C2=O)cc1)c1ccccc1 (some centres unmarked) [Compound 116]	< 0.1 µM
C[C@H](NC(=O)C(c1ccccc1)c1ccccc1)C(=O)Nc1ccc(C2S/C(=N\c3ccc(N4CCOCC4)cc3)N(Cc3ccccn3)C2=O)cc1 (some centres unmarked) [Compound 112]	< 0.1 µM
C/N=C1\SC(c2ccc(NC(=O)[C@H](C)NC(=O)C(c3ccccc3)c3ccccc3)cc2)C(=O)N1Cc1ccccn1 (some centres unmarked) [Compound 111]	< 0.1 µM
C[C@H](NC(=O)OCc1ccccc1)C(=O)Nc1ccc(C2S/C(=N\c3ccc(N4CCOCC4)cc3)N(Cc3ccncc3)C2=O)cc1 (some centres unmarked) [Compound 82]	< 0.1 µM
C[C@H](NC(=O)c1ccccc1)C(=O)Nc1ccc(C2S/C(=N\c3cccc(F)c3)N(Cc3ccco3)C2=O)cc1 (some centres unmarked) [Compound 126]	1 to 5 µM
O=C(Nc1ccc(C2S/C(=N\c3ccc4c(c3)OCCO4)N(Cc3ccco3)C2=O)cc1)[C@@H]1CCCN1C(=O)OCc1ccccc1 (some centres unmarked) [Compound 63]	< 0.1 µM
CCC(C)c1ccc(/N=C2\SC(c3ccc(NC(=O)[C@H](C)NC(=O)OCc4ccccc4)cc3)C(=O)N2Cc2ccco2)cc1 (some centres unmarked) [Compound 46]	1 to 5 µM
O=C(Nc1ccc(C2S/C(=N\c3ccc(N4CCOCC4)cc3)N(Cc3ccccn3)C2=O)cc1)[C@@H]1CCCN1C(=O)Cc1ccc(C(F)(F)F)cc1 (some centres unmarked) [Compound 109]	1 to 5 µM
Cc1ccc(/N=C2\SC(c3ccc(NC(=O)[C@H](C)NC(=O)OCc4ccccc4)cc3)C(=O)N2Cc2ccco2)c(Cl)c1 (some centres unmarked) [Compound 41]	1 to 5 µM
O=C(Nc1ccc(C2S/C(=N\c3cccc(F)c3)N(CCOc3ccccc3)C2=O)cc1)[C@@H]1CCCN1C(=O)OCc1ccccc1 (some centres unmarked) [Compound 17]	1 to 5 µM
O=C(Nc1ccc(C2S/C(=N\c3ccc(N4CCOCC4)cc3)N(Cc3ccccn3)C2=O)cc1)[C@@H]1CCCN1C(=O)Cc1ccccc1 (some centres unmarked) [Compound 98]	< 0.1 µM
C[C@H](NC(=O)OCc1ccccc1)C(=O)Nc1ccc(C2S/C(=N\c3ccc(F)c(Cl)c3)N(Cc3ccco3)C2=O)cc1 (some centres unmarked) [Compound 52]	1 to 5 µM
O=C(Nc1ccc(C2S/C(=N\c3ccc4c(c3)CCC4)N(Cc3ccco3)C2=O)cc1)[C@@H]1CCCN1C(=O)OCc1ccccc1 (some centres unmarked) [Compound 38]	0.1 to 1 µM
C[C@H](NC(=O)OCc1ccccc1)C(=O)Nc1ccc(C2S/C(=N\c3cccc(F)c3)N(Cc3ccccn3)C2=O)cc1 (some centres unmarked) [Compound 4]	< 0.1 µM
C[C@H](NC(=O)OCc1ccccc1)C(=O)Nc1ccc(C2S/C(=N\c3ccc4c(c3)OCCO4)N(Cc3ccco3)C2=O)cc1 (some centres unmarked) [Compound 64]	< 0.1 µM
